Assay: Calibration of the Working Reagent at 660 nm (aqueous hemoglobin solutions)
Type: biochemical
Settings: 2 minutes, 37° C.
Method: To prepare the solution-based assay composition, 14 mL of stock reagent B was poured into 1 mL of stock reagent A and mixed gently for 1-2 minutes by stirring. The combined A/B reagent was poured into 1 L of stock reagent C and mixed gently by stirring for approximately 30 minutes and allowed to stand at room temperature overnight prior to use. This prepared a working solution-based assay composition to be used as a working reagent.
A solution-based assay composition prepared according to Example 1 was used to calibrate its detectable color change having an absorbance at about 660 nm. Aqueous solutions of hemoglobin were prepared in the concentrations of 0.055, 0.060, 0.065, 0.068, 0.070, and 0.075 mg/dL. Twenty-one replicates of each hemoglobin solution were run using the following procedure.
The solution-based assay composition (or working reagent) and the hemoglobin solutions were equilibrated at room temperature before use. A 15 microliter sample of a hemoglobin solution and 250 microliters of the working reagent were transferred to the sample wheel of a Cobas-Bio autoanalyzer which was equilibrated at 37° C. The sample and the working reagent were mixed by rotation of the sample wheel. After the sample and working reagent were allowed to react for 2 minutes, the absorbance of the resulting solution was measured at 660 nm. The calibration curve shown in FIG. 1 was generated by plotting absorbance versus concentration data shown in Table 1 below and using standard regression analysis. This calibration curve can then be used to quantitatively assay the amount of hemoglobin in a bodily fluid.

HEMOGLOBIN
ABSORBANCE, 660 nm (hemoglobin 0.055 mg/dL, 15 microliter sample + 250 microliters working reagent): 0.1139
ABSORBANCE, 660 nm (hemoglobin 0.06 mg/dL): 0.1319
ABSORBANCE, 660 nm (hemoglobin 0.065 mg/dL): 0.1474
ABSORBANCE, 660 nm (hemoglobin 0.0675 mg/dL): 0.1557
ABSORBANCE, 660 nm (hemoglobin 0.070 mg/dL): 0.1719
ABSORBANCE, 660 nm (hemoglobin 0.075 mg/dL): 0.1877

— US5885789A, “Solution-based assay for peroxidatively-active substances in bodily fluids” (STC Technologies Incorporated, priority 1997, dated 1999)
